# Results as given in patent US20170275287A1, “NOVEL N2, N4, N7, 6-TETRASUBSTITUTED PTERIDINE-2,4,7-TRIAMINE AND 2, 4, 6, 7-TETRASUBSTITUTED PTERIDINE COMPOUNDS AND METHODS OF SYNTHESIS AND USE THEREOF” (Janus Biotherapeutics, Inc., priority 2014, published 2017).
# pIC50: −log10 of the molar value.
# Assays:
# hERG = target: T1, hERG (Homo sapiens, UniProt Q12809); assay: hERG patch clamp assay (automated, CHO-hERG cells); type: cell-based
# T1 construct: host or cells: CHO (Chinese hamster ovary)
# Method: The hERG inhibition assay uses a high throughput single cell planar patch clamp approach. Chinese hamster ovary cells transfected with the hERG gene (CHO-hERG) are dispensed into the PatchPlate. Amphotericin is used as a perforating agent to gain electrical access to the cells. The hERG tail current is measured prior to the addition of the test compound by perforated patch clamping. Following addition of the test compound at a defined concentration or range of concentrations a second recording of the hERG current is performed. The degree of inhibition (%) is obtained by measuring the tail current amplitude, which is induced by a one second test pulse to −40 mV after a two second pulse to +20 mV, before and after drug incubation (the difference current is normalized to control and multiplied by 100 to obtain the percent of inhibition).
# Concentration (log) response curves were fitted to a logistic equation (three parameters assuming complete block of the current at very high test compound concentrations) to generate estimates of the 50% inhibitory concentration (IC50). The concentration-response relationship of each compound is constructed from the percentage reductions of current The data is usually categorized into the following classification bands:
# The hERG assay was conducted by Cyprotec Inc. in its Watertown, Mass. laboratories. The concentration range tested was 0.0096-30 μM. No concentration-dependent inhibition was observed, IC50>30 μM.
# The hERG inhibition assay uses a high throughput single cell planar patch clamp approach. Chinese hamster ovary cells transfected with the hERG gene (CHO-hERG) are dispensed into the PatchPlate. Amphotericin is used as a perforating agent to gain electrical access to the cells. The hERG tail current is measured prior to the addition of the test compound by perforated patch clamping. Following addition of the test compound, n=4 cells per concentration, final DMSO concentration=0.25%), a second recording of the hERG current is performed.
# Post-compound hERG currents are expressed as a percentage of pre-compound hERG currents (% control current) and plotted against concentration for each compound. Where concentration dependent inhibition is observed the Hill equation is used to fit a sigmoidal line to the data and an IC50 (concentration at which 50% inhibition is observed) is determined. The assays were performed according to Haverkamp, W. et al., 2000, Eur Heart J., 21:1216-1231, Kiss, L. et al., 2003, Assay Drug Dev. Technol., 1:127-135 and Schroeder, K. et al., 2003, J. Biomol Screen, 8:50-64.
# TLR9 = target: T2, TLR9 (Homo sapiens, UniProt Q9NR96); assay: TLR9 antagonist assay in human PBMCs (ODN2395, IFNα ELISA); type: cell-based; settings: human PBMC, 0.25 μM ODN2395, IFNα readout
# T2 construct: PBMCs were isolated from unpurified buffy coat from healthy human donors; host or cells: primary human PBMCs
# T2 sequence (Q9NR96 26-1032): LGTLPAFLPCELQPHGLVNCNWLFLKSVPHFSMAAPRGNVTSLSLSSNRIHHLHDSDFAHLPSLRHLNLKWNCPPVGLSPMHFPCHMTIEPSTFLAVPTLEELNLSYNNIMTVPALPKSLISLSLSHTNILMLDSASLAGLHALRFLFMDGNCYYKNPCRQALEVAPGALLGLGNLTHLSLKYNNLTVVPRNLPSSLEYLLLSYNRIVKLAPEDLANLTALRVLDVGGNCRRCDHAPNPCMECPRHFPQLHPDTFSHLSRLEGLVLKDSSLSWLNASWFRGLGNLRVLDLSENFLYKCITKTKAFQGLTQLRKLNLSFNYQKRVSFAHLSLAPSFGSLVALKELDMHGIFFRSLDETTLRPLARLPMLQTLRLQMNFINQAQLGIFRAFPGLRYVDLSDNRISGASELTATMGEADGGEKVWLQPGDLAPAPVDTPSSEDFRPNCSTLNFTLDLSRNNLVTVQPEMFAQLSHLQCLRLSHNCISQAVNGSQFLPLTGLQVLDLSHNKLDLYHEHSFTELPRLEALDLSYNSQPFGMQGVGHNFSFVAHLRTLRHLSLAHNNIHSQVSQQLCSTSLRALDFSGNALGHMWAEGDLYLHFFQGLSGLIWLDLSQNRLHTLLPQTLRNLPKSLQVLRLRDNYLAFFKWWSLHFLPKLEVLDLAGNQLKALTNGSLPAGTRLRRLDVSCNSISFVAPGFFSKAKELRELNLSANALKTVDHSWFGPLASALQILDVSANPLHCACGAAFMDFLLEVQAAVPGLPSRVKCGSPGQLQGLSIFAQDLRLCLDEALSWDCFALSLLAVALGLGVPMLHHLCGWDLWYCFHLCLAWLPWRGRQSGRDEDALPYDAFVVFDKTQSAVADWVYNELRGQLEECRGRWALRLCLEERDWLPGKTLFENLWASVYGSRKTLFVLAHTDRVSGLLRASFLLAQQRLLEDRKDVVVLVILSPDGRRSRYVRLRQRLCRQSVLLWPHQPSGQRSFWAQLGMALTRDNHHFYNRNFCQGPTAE
# Method: PBMCs were isolated from unpurified buffy coat from healthy human donors (Blood Research Components, LLC). For antagonist testing, cells were plated on 96-well U-bottom plates at 3×10^6 cells/ml. Antagonist compounds were added to cells in duplicate wells and titrated from 10 μM in 1:3 serial dilutions (8 antagonist concentrations tested in total). After approximately 30 minutes, cells were stimulated with agonist compound (see table 2 for agonist concentrations). After stimulation, cells were incubated overnight at 37° C. To increase the stability of the ssRNA, 3 μg/ml DOTAP (Roche) was added to ORN1075 agonist solutions. All dilutions were made in RPMI-1640 media (Sigma, cat.# R7388)+5% human male AB sera (Sigma, cat.# H4522)+1× Penicillin/Streptomycin solution (VWR, cat.#82026-730).
# TLR activity was measured in PBMCs and neutrophils by ELISA using cytokine readouts specific for the TLR of interest.
# IFNα was measured as a readout for TLR7 and TLR9 activity in PBMCs stimulated with either ORN1075, or ODN2395, respectively, using a Human Pan-IFNα ELISA kit (MABTech, cat.#3425-1H-20). PBMC supernatant was diluted 1:3 in PBS+0.05% tween-20+0.1% BSA. Absorbance at 450 nm was recorded using a Molecular Devices SpectraMax340PC plate reader. The IC50 for each antagonist was subsequently calculated following the method described below.
# Raw ELISA datasets for each 96-well plate, consisting of absorbance readings at […], were first imported in Microsoft Excel to calculate the average absorbance for each standard or antagonist concentration. The averaged data was then imported into SigmaPlot v.11.0 where a standard curve was calculated and used to extrapolate the relative concentration of TLR readout (TNFα, IFNα, etc.) produced. The dose-response curve of each antagonist was then plotted with SigmaPlot v.11.0 on a Log scale. Concentrations of TLR readout were converted to a percentage relative to the average maximum concentration for that ELISA plate in Microsoft Excel. The IC50 for each antagonist was then determined with the SigmaPlot regression wizard using a 4-parameter Hill equation. Each antagonist was tested in a minimum of 3 independent experiments and IC50 results were compiled and averaged using Microsoft Excel.
# T1 sequence (Q12809 whole entry): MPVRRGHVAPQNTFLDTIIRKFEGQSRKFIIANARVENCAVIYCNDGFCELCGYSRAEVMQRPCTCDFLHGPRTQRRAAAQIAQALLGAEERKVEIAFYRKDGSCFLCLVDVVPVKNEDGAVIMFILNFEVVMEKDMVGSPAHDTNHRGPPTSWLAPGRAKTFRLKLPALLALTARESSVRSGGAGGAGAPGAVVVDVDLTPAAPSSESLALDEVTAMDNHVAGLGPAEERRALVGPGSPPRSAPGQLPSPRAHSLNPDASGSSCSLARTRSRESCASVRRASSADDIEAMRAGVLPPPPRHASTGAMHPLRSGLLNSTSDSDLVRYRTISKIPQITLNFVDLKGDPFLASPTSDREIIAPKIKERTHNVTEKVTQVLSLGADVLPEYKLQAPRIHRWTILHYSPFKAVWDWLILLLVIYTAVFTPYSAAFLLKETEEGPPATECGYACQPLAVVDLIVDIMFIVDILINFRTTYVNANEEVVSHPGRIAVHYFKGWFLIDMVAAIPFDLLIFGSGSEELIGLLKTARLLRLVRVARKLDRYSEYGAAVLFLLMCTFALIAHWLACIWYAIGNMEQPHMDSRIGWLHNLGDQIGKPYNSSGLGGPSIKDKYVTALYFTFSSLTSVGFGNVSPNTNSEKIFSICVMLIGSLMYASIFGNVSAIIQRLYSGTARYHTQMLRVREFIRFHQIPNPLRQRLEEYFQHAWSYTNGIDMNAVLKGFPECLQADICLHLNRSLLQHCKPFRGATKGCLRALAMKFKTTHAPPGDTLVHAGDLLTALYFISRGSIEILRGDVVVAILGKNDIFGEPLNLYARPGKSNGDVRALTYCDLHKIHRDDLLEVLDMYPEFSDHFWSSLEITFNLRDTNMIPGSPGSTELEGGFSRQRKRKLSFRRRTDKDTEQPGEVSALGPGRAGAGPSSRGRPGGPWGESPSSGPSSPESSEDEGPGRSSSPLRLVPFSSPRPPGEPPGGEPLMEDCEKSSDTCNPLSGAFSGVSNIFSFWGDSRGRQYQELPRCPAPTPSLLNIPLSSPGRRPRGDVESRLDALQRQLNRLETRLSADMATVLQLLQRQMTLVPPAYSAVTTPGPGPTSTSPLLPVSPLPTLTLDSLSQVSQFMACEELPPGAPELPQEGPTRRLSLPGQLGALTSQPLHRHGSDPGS
pIC50 (TLR9),Structure (SMILES),pIC50 (hERG; Table 4b),"pIC50 (hERG; hERG patch clamp assay, FIG. 1)","pIC50 (hERG; human, CHO cells transfected with hERG (CHO-hERG), Table 4b)","pIC50 (hERG; Cyprotec, concentration range tested 0.0096-30 μM)",hERG inhibition (hERG; up to 30 μM)
7.22,COCCN1CCN(c2nc(NCCN3CCOCC3)c3nc(Cl)c(NCCN4CCOCC4)nc3n2)CC1 [JB6160],< 4.52,,,,
6.53,CN1CCN(c2nc3nc(-c4ccccc4)nc(NCCN4CCOCC4)c3nc2OCCN2CCOCC2)CC1 [JB6116],,4.88,> 4.52,,
7.00,CCCCNc1nc(NCCN2CCOCC2)c2nc(Cl)c(NCCN3CCOCC3)nc2n1 [JB6140],> 6.00,,,,
6.49,CCOc1nc2c(NCCN3CCCC3)nc(-c3ccccc3)nc2nc1N1CCN(C)CC1 [JB6131],> 5.00,5.09,,,
6.78,Clc1nc2c(NCCN3CCOCC3)nc(NCc3ccccc3)nc2nc1NCCN1CCOCC1 [JB6172],6.00,,,,
7.27,C[C@@H]1CN(CCNc2nc3nc(N4CCN(C)CC4)nc(NCCN4C[C@@H](C)O[C@@H](C)C4)c3nc2Cl)C[C@H](C)O1 [JB6143],< 4.52,,,,
7.21,CCCCNc1nc(NCCN2CCOCC2)c2nc(SCC)c(NCCN3CCOCC3)nc2n1 [JB6185],> 6.52,,,,
6.94,CCOc1nc2c(NCCN3CCOCC3)nc(NCc3ccccc3)nc2nc1NCCN1CCOCC1 [JB6180],6.52,,,,
5.06,Clc1nc2c(NCCN3CCOCC3)nc(N3CCOCC3)nc2nc1NCCN1CCOCC1 [JB6147],,,,,
6.52,CN1CCN(c2nc(NCCN3CCOCC3)c3ncc(-c4ccccc4)nc3n2)CC1 [JB6059],5.30,5.21,,,

Structure (SMILES),pIC50 (TLR9),pIC50 (hERG; Table 4b),"pIC50 (hERG; hERG patch clamp assay, FIG. 1)","pIC50 (hERG; human, CHO cells transfected with hERG (CHO-hERG), Table 4b)","pIC50 (hERG; Cyprotec, concentration range tested 0.0096-30 μM)",hERG inhibition (hERG; up to 30 μM)
"CN1CCN(c2nc(NCCN3CCOCC3)c3nc(Cl)c(NCCN4CCOCC4)nc3n2)CC1 [JB6121, 6-chloro-2-(4-methylpiperazin-1-yl)-N^4,N^7-bis(2-morpholinoethyl)pteridine-4,7-diamine]",6.84,< 4.52,,,< 4.52,no measurable hERG inhibition
